According to ChEMBL document CHEMBL3272349, “Quantitative structure-activity relationships of antimalarial and dihydrofolate reductase inhibition by quinazolines and 5-substituted benzyl-2,4-diaminopyrimidines” (J Med Chem, 1977):

Each compound was assayed on Plasmodium berghei (assay: Antimalarial activity against Plasmodium berghei infected mouse assessed as suppression of parasitemia administered through diet for 6 days).
Format: functional

SMILES | log(1/SD90)
Nc1nc(N)c2cc(NCc3ccccc3N)ccc2n1 | 3.07
CC(C)N(Cc1ccc(Cl)cc1)c1ccc2nc(N)nc(N)c2c1 | 6.76
Nc1nc(N)c2cc(NCc3ccc4ccccc4c3Cl)ccc2n1 | 4.59
Nc1nc(N)c2cc(N(Cc3ccc(Cl)c(Cl)c3)N=O)cnc2n1 | 4.48
CN(Cc1ccc(Cl)c(Cl)c1)c1ccc2nc(N)nc(N)c2c1 | 6.34
Nc1nc(N)c2cc(NCc3ccc(Cl)s3)ccc2n1 | 4.49
CCCN(Cc1ccc(Cl)c(Cl)c1)c1ccc2nc(N)nc(N)c2c1C | 5.36
CN(C)c1nc(N(C)C)c2cc(NCc3ccc(Cl)c(Cl)c3)ccc2n1 | 4.21
Cc1c(NCc2ccccc2)ccc2nc(N)nc(N)c12 | 5.33
Nc1nc(N)c2cc(NCc3ccccc3[N+](=O)[O-])ccc2n1 | 3.26
CCN(Cc1ccc(Cl)c(Cl)c1)c1ccc2nc(N)nc(N)c2c1 | 6
CC(c1ccc(Cl)c(Cl)c1)N(C)c1ccc2nc(N)nc(N)c2c1 (stereo not given) | 5.6
CCCCCCCCN(Cc1ccc(Cl)cc1)c1ccc2nc(N)nc(N)c2c1 | 4.08
CN(C)c1nc(N)c2cc(NCc3ccccc3)ccc2n1 | 3.75
Cc1c(NCc2ccc(Cl)c(Cl)c2)ccc2nc(N)nc(N)c12 | 4.83
CCCCNc1nc(NCCCC)c2cc(NCc3ccc(Cl)c(Cl)c3)ccc2n1 | 3.47
Nc1nc(N)c2cc(NCc3cccs3)ccc2n1 | 3.82
CCCCN(Cc1ccc(Cl)c(Cl)c1)c1ccc2nc(N)nc(N)c2c1 | 5.06
CCN(Cc1ccc(Cl)cc1)c1ccc2nc(N)nc(N)c2c1 | 6.4
Nc1nc(N)c2cc(NCc3cccc(Br)c3)ccc2n1 | 5.93
CCN(Cc1ccc(Cl)c(Cl)c1)c1ccc2nc(N)nc(N)c2c1C | 5.2
Nc1nc(N)c2c(Cl)c(NCc3ccc(Cl)c(Cl)c3)ccc2n1 | 5.72
CN(Cc1ccccc1)c1ccc2nc(N)nc(N)c2c1 | 6.15
COc1cccc(CNc2ccc3nc(N)nc(N)c3c2)c1 | 4.15
Nc1nc(N)c2cc(NCCc3ccc(Cl)cc3)ccc2n1 | 4.24
CC(Nc1ccc2nc(N)nc(N)c2c1)c1ccc(Cl)c(Cl)c1 (stereo not given) | 4.6
CCN(Cc1cccc2ccccc12)c1ccc2nc(N)nc(N)c2c1 | 5.97
CCN(CC)c1nc(N(CC)CC)c2cc(NCc3ccc(Cl)c(Cl)c3)ccc2n1 | 3.31
CCCN(Cc1ccc(Cl)cc1)c1ccc2nc(N)nc(N)c2c1 | 6.3
CCCN(Cc1ccc(Cl)c(Cl)c1)c1ccc2nc(N)nc(N)c2c1 | 6.1

These compounds were tested on Plasmodium berghei (assay: Antimalarial activity against Plasmodium berghei infected in po dosed mouse assessed as suppression of parasitemia administered for 6 days).
Format: functional

SMILES | log(1/SD90)
Nc1nc(N)c2cc(NCc3ccc(Cl)c(Cl)c3)ccc2n1 | 4.59
Nc1nc(N)c2cc(Oc3cc(C(F)(F)F)cc(C(F)(F)F)c3)ccc2n1 | 4.44
Nc1nc(N)c2cc(Oc3ccc(Cl)c4ccccc34)ccc2n1 | 3.57
Nc1nc(N)c2cc(Oc3cc(Cl)cc(Cl)c3)ccc2n1 | 4.11
Nc1nc(N)c2cc(Oc3ccccc3)ccc2n1 | 4.43
Nc1nc(N)c2cc(Oc3cc(Cl)c(Cl)cc3Cl)ccc2n1 | 4.57
Nc1nc(N)c2cc(OCc3ccc(Cl)cc3)ccc2n1 | 4.06

Each compound was assayed on Plasmodium berghei (assay: Antimalarial activity against Plasmodium berghei infected in po dosed mouse assessed as suppression of parasitemia).
Format: functional

SMILES | log(1/SD90)
Nc1nc(N)c2cc(CNc3ccc(Cl)c(Cl)c3)ccc2n1 | 5.56
Cc1c(N(C=O)Cc2ccc(Cl)c(Cl)c2)ccc2nc(N)nc(N)c12 | 5.69
Nc1nc(N)c2c(n1)CCN(Cc1ccc(Cl)cc1)C2 | 4.14
Nc1nc(N)c2cc(CNc3ccc(Cl)cc3)ccc2n1 | 5.2
Nc1nc(N)c2c(n1)CCN(Cc1ccccc1)C2 | 3.65
Nc1nc(N)c2c(n1)CCN(Cc1ccccc1Cl)C2 | 3.73
Nc1nc(N)c2c(n1)CCN(Cc1ccncc1)C2 | 3.31
Cc1c(N(Cc2ccc(Cl)c(Cl)c2)N=O)ccc2nc(N)nc(N)c12 | 5.15
Nc1nc(N)c2cc(N(C=O)Cc3ccc(Cl)c(Cl)c3)ccc2n1 | 5.24
Nc1nc(N)c2cc(CN(N=O)c3ccc(Cl)c(Cl)c3)ccc2n1 | 6.16
Nc1nc(N)c2c(n1)CCN(Cc1cccnc1)C2 | 3.88
Nc1nc(N)c2c(n1)CCN(Cc1c(Cl)cccc1Cl)C2 | 4.36
Cc1c(CN(N=O)c2ccc(Cl)c(Cl)c2)ccc2nc(N)nc(N)c12 | 5.52
Nc1nc(N)c2c(n1)CCN(Cc1ccc(Cl)cc1Cl)C2 | 4.4
Nc1nc(N)c2c(n1)CCN(Cc1ccc(Cl)c(Cl)c1)C2 | 4.92
Cc1c(CNc2ccc(Cl)c(Cl)c2)ccc2nc(N)nc(N)c12 | 6.02
Cc1c(CNc2ccc(Cl)cc2)ccc2nc(N)nc(N)c12 | 6.55
Nc1nc(N)c2cc(-n3cccc3)ccc2n1 | 4.29

These compounds were tested against T1, Dihydrofolate reductase (Enterococcus faecium) (UniProt P00380).
T1 sequence (whole entry): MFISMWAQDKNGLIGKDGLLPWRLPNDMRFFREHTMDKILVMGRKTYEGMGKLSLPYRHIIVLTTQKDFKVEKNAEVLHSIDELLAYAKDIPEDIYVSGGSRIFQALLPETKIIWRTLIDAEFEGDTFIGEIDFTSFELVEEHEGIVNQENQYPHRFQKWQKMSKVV
Description: Inhibition of Streptococcus faecium dihydrofolate reductase using dihydrofolate as substrate

SMILES | log(1/I50)
Cc1c(CNc2ccc(C(=O)NC(CC(=O)O)C(=O)O)cc2)ccc2nc(N)nc(N)c12 (stereo not given) | 8.6
CCOC(=O)c1ccc(CNc2ccc3nc(N)nc(O)c3c2C)cc1 | 4.52
Nc1nc(N)c2c(CSc3ccc(Cl)cc3)cccc2n1 | 7.24
Nc1nc(N)c2c(Sc3ccc(Cl)c(Cl)c3)cccc2n1 | 6.54
Nc1nc(N)c2c(S(=O)(=O)c3ccc(Cl)c(Cl)c3)cccc2n1 | 5.85
Sc1nc(S)c2cc(Sc3ccc4ccccc4c3)ccc2n1 | 3.65
Nc1nc(N)c2c(/C=C/c3ccc4ccccc4c3)cccc2n1 | 7.12
Oc1nc(S)nc2ccc(Sc3ccc4ccccc4c3)cc12 | 3.85
Nc1nc(O)c2cc(CNc3ccc(C(=O)O)cc3)ccc2n1 | 5.74
CCOC(=O)c1ccc(NCc2ccc3nc(N)nc(O)c3c2)cc1 | 7.07
Nc1nc(O)c2cc(S(=O)(=O)c3ccc(Cl)c(Cl)c3)ccc2n1 | 5.3
Nc1nc(S)nc2ccc(Sc3ccc4ccccc4c3)cc12 | 4.69
Nc1nc(N)c2c([S+]([O-])c3ccc4ccccc4c3)cccc2n1 (stereo not given) | 4.36
Nc1nc(O)c2cc(S(=O)(=O)c3ccc4ccccc4c3)ccc2n1 | 6.3
Nc1nc(O)c2c(Sc3ccc4ccccc4c3)cccc2n1 | 4.68
Nc1ncnc2ccc(Sc3ccc4ccccc4c3)cc12 | 4.07
Nc1nc(N)c2c([S+]([O-])c3ccc(Cl)c(Cl)c3)cccc2n1 (stereo not given) | 4.65
CCCCOC(=O)c1ccc(NCc2ccc3nc(N)nc(N)c3c2C)cc1 | 8.15
CCCCOC(=O)c1ccc(NCc2ccc3nc(N)nc(N)c3c2Cl)cc1 | 7.68
Nc1nc(O)c2cc(CN(C=O)c3ccc(C(=O)NC(CCC(=O)O)C(=O)O)cc3)ccc2n1 (stereo not given) | 6.52
CCCCOC(=O)c1ccc(NCc2ccc3nc(N)nc(N)c3c2)cc1 | 7.52
Nc1nc(O)c2c(S(=O)(=O)c3ccc4ccccc4c3)cccc2n1 | 5.85
Nc1nc(N)c2cc(CNc3ccc(C(=O)O)cc3)ccc2n1 | 8.8
Nc1nc(N)c2c(/C=C\c3ccc4ccccc4c3)cccc2n1 | 7.43
Nc1nc(O)c2cc(Sc3ccc(Cl)c(Cl)c3)ccc2n1 | 5.92
CCOC(=O)c1ccc(CNc2ccc3nc(N)nc(N)c3c2Cl)cc1 | 8.2
CCOC(=O)c1ccc(CNc2ccc3nc(N)nc(N)c3c2C)cc1 | 8.85
CCOC(=O)c1ccc(CNc2ccc3nc(N)nc(N)c3c2)cc1 | 7.34

SMILES | log(1/I50)
CCOC(=O)c1ccc(CNc2ccc3nc(N)nc(O)c3c2Cl)cc1 | 6.09
CCOC(=O)c1ccc(CNc2ccc3nc(N)nc(O)c3c2)cc1 | 4.55
Nc1nc(N)c2c(CSc3ccc4ccccc4c3)cccc2n1 | 7.55
Nc1nc(N)c2c(CCc3ccc4ccccc4c3)cccc2n1 | 8
Cc1c(CNc2ccc(C(=O)O)cc2)ccc2nc(N)nc(N)c12 | 7.96
Nc1nc(N)c2c(Sc3ccc4ccccc4c3)cccc2n1 | 7.25
CCOC(=O)c1ccc(NCc2ccc3nc(N)nc(N)c3c2)cc1 | 7.68
O=c1[nH]c(=S)c2cc(Sc3ccc4ccccc4c3)ccc2[nH]1 | 4.24
Nc1nc(O)c2cc(Sc3ccc4ccccc4c3)ccc2n1 | 6.74
Nc1nc(O)nc2ccc(Sc3ccc4ccccc4c3)cc12 | 4.34
Nc1ncnc2ccc([S+]([O-])c3ccc4ccccc4c3)cc12 (stereo not given) | 4.58
O=c1[nH]c(=O)c2cc(Sc3ccc4ccccc4c3)ccc2[nH]1 | 4.32
Nc1nc(N)c2cc(S(=O)(=O)c3ccc4ccccc4c3)ccc2n1 | 8.4
Nc1nc(N)c2c(S(=O)(=O)c3ccc4ccccc4c3)cccc2n1 | 4.05
CCOC(=O)c1ccc(NCc2ccc3nc(N)nc(N)c3c2Cl)cc1 | 8.64
Nc1nc(O)c2cc([S+]([O-])c3ccc4ccccc4c3)ccc2n1 (stereo not given) | 5.28
Nc1nc(S)c2cc(S(=O)(=O)c3ccc4ccccc4c3)ccc2n1 | 5.17
Nc1nc(N)c2cc(Sc3ccc(Cl)c(Cl)c3)ccc2n1 | 8.24
Nc1nc(N)c2cc(S(=O)(=O)c3ccc(Cl)c(Cl)c3)ccc2n1 | 9.15
CCOC(=O)CCC(NC(=O)c1ccc(NCc2ccc3nc(N)nc(N)c3c2)cc1)C(=O)OCC (stereo not given) | 7.7
Nc1nc(N)c2c(Cl)c(CNc3ccc(C(=O)O)cc3)ccc2n1 | 8.27
CCOC(=O)c1ccc(NCc2ccc3nc(N)nc(N)c3c2C)cc1 | 8.29
Nc1nc(N)c2cc(CN(C=O)c3ccc(C(=O)NC(CCC(=O)O)C(=O)O)cc3)ccc2n1 (stereo not given) | 9
Nc1nc(N)c2cc(Sc3cccc(C(F)(F)F)c3)ccc2n1 | 9.15
Nc1ncnc2ccc(S(=O)(=O)c3ccc4ccccc4c3)cc12 | 3.51
Nc1nc(N)c2cc([S+]([O-])c3ccc4ccccc4c3)ccc2n1 (stereo not given) | 8.7
Nc1nc(S)c2cc(Sc3ccc4ccccc4c3)ccc2n1 | 6.1
